# Experimental data published in publication PMC7464270, “The Interaction of Bovine β-Lactoglobulin with Caffeic Acid: From Binding Mechanisms to Functional Complexes” (Biomolecules, 2020).
# Molecular target: T1, native bovine β-lactoglobulin (n-β-LG) (Bos taurus, UniProt P02754)
# T1 construct: gene LGB; dimer prevails at physiological pH
# T1 sequence (P02754 17-178): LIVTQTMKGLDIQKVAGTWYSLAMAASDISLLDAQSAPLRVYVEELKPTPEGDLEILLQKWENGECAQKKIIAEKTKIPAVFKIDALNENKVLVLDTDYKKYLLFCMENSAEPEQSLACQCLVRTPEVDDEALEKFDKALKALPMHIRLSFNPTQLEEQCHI
# Assay: intrinsic tryptophan fluorescence quenching (excitation […] nm)
# Type: binding
# Conditions: native protein treated at 25 °C (measured at 23 ± 1 °C), Tris buffer pH 8.0; double-log
structure (smiles),measurement,value
"O=C(O)/C=C/c1ccc(O)c(O)c1 [CA, caffeic acid]",n-β-LG / Kb (10^6 Mol^-1),0.72 ± 0.03 10^6 Mol^-1
